Data from patent US20060063784A1, “Method of using substituted pyrazolo [1,5-a] pyrimidines” (priority 2004, published 2006).
Like-named read-outs stand apart in the source and are kept apart here.

Tested on: 80S14 (p21-deficient) cells
Experiment: Cytotoxicity assay using isogenic cell lines: IC50 in 80S14 (p21-deficient) cells, SRB
Assay type: cell-based, human
Description: Cytotoxicity Assay Using Isogenic Cell Lines: • 1. 80S14 (p21-deficient) cells were cultured in RPMI 1640 medium (Gibco/Invitrogen Life technologies) supplemented with 10% fetal bovine serum (FBS, Gibco) and 10 μg/ml gentamycin (Gibco). Cells were maintained at 37° C. under 7% CO2 • 2. Cells were plated at 6×10^4/ml (0.2 ml/well; 12,000 cells/well) in 96-well microtiter plates (Falcon or Corning/Costar) and incubated at 37° C. overnight (18-24 hours). • 3. 2-5 μl of the test agent [200 μg/ml stock in 20% DMSO/20 mM HEPES, pH 7.5 (Gibco)] was added to each well to achieve a final concentration of 2-5 μg/ml. Cells were incubated with the test compounds for 5 days at 37° C. • 4. Surviving cells were fixed with 50 μl 50% trichloroacetic acid (Sigma; 10% final concentration) for 1 hour at 4° C. • 5. Plates were rinsed twice with water (0.3 ml per wash using MRD8 robot), and allowed to dry. • 6. Sulforhodamine B (SRB) (Sigma; 0.4% in 1% acetic acid, 50 μl per well; MRD8 robot) was added and plates kept at room temperature for 10 minutes. • 7. Excess dye was removed by washing with 1% acetic acid (3 times, 0.3 ml per wash; MRD8 robot) and allowed to dry. • 8. The dye was solubilized in Tris base (Sigma; 10 mM, 150 μl per well). Plates were kept at room temperature for 30 minutes to allow the dye to diffuse. • 9. Absorbance was measured at 540 nm. • 10. The percentage of cells surviving drug treatment relative to control wells (no drug) was determined. • 11. The difference in % cell survival between the two cell lines was calculated. • 12. Compounds producing a difference score of >50 were considered to be selective for the p21-deficient cells and were evaluated further: Determination of selectivity of compounds for p21−/− cells: • 1. 80S14 cells were cultured as described above. • 2. Cells were seeded in 96-well microtiter plates at 12,000 cells/well (either 0.15 ml/well of 8×10^4 cells/ml suspension, or 0.2 ml/well of 6×10^4 cells/ml suspension). Plates were incubated at 37° C. overnight (18-24 hours). • 3. Serial dilutions of the test agent were added to each well. Dilutions were prepared either in 40% DMSO/20% methanol/20 mM HEPES, pH 7.5 (Gibco) or directly in growth medium. One of two dose ranges were used: 5 pM to 50 μM or 170 pg/ml to 10 μg/ml. Cells were incubated with the test compounds for 5 days at 37° C. • 4. Surviving cells were fixed with 50 μl 50% trichloroacetic acid (Sigma; 10% final concentration) for 1 hour at 4° C. • 5. Plates were rinsed extensively in water, and allowed to dry. • 6. Sulforhodamine B (Sigma; 0.4% in 1% acetic acid, 70 μl per well) was added and plates kept at room temperature for 10 minutes. • 7. Excess dye was removed by washing 5 times with 1% acetic acid and plates were allowed to dry. • 8. The dye was solubilized in Tris base (Sigma; 10 mM, 150 μl per well). Plates were placed on a titer plate shaker (Lab Line Instruments) for 5 minutes to allow the dye to diffuse. • 9. Absorbance was measured at 560 nm.
10. The drug concentration that inhibits cell proliferation by 50% relative to untreated controls (IC50) was determined from cytotoxicity curves.

[1] = Homo sapiens, 120 h, 80S14 p21-deficient cells, 5 days incubation, SRB, read-out: IC50 for 80SI4
[2] = Homo sapiens, 120 h, 80S14 (p21-deficient) cells, 5 days, SRB, class symbols, read-out: IC50 for 80S14
[3] = Homo sapiens, 80S14, 120 h, read-out: IC50 for 80S14 (uM)
[4] = 80S14 p21-deficient cells, 5 days incubation, SRB, read-out: IC50 for 80SI4

Compound COCCOCC(=O)Nc1cccc(-c2ccnc3c(C(=O)c4cccs4)cnn23)c1 [Example 63, 2-(2-methoxyethoxy)-N-{3-[3-(thien-2-ylcarbonyl)pyrazolo[1,5-a]pyrimidin-7-yl]phenyl}acetamide] has an IC50 [1] of 1 to 10 µM.
With CC(C)CC(=O)Nc1cccc(-c2ccnc3c(Br)cnn23)c1 [Example 330, N-[3-(3-Bromopyrazolo[1,5-a]pyrimidin-7-yl)phenyl]-3-methylbutanamide] the IC50 [2] was 10 to 50 µM.
Work on Cc1cnc2c(C(=O)c3cccs3)cnn2c1-c1cccc(NC(=O)NC(C)C)c1 [Example 222, N-isopropyl-N′-{3-[6-methyl-3-(thien-2-ylcarbonyl)pyrazolo[1,5-a]pyrimidin-7-yl]phenyl}urea] yielded an IC50 [1] of 10 to 50 µM.
Work on O=C(Nc1ccccc1)c1cccc(-c2ccnc3c(C(=O)c4cccs4)cnn23)c1 [Example 321, N-Phenyl-3-[3-(2-thienylcarbonyl)pyrazolo[1,5-a]pyrimidin-7-yl]benzamide] yielded an IC50 [2] of under 1 µM.
CCC(=O)N(C)c1cccc(-c2ccnc3c(C(=O)c4cccs4)cnn23)c1 [Example 237, N-Methyl-N-[3-[3-(2-thienylcarbonyl)-pyrazolo[1,5-a]pyrimidin-7-yl]phenyl}-propanamide] gave an IC50 [3] of 1 to 10 µM.
With CC(C)CC(C)OC(=O)Nc1cccc(-c2ccnc3c(C(=O)c4cccs4)cnn23)c1 (stereo not drawn) [Example 185, 1,3-dimethylbutyl3-[3-(thien-2-ylcarbonyl)pyrazolo[1,5-a]pyrimidin-7-yl]phenylcarbamate] the IC50 [1] was 1 to 10 µM.
N[C@@H](Cc1ccccc1)C(=O)Nc1cccc(-c2ccnc3c(C(=O)c4cccs4)cnn23)c1 [Example 81, N-{3-[3-(thien-2-ylcarbonyl)pyrazolo[1,5-a]pyrimidin-7-yl]phenyl}-L-phenylalaninamide] gave an IC50 [1] of 10 to 50 µM.
CN(C)c1ccc(-c2ccnc3c(C(=O)c4cccs4)cnn23)cc1NC(=O)c1ccncc1 [Example 428, N-{2-(Dimethylamino)-5-[3-(thien-2-ylcarbonyl)pyrazolo[1,5-a]pyrimidin-7-yl]phenyl}isonicotinamide] gave an IC50 [2] of 1 to 10 µM.
For C=CCCOC(=O)Nc1cccc(-c2ccnc3c(C(=O)c4cccs4)cnn23)c1 [Example 20, 3-butenyl 3-[3-(2-thienylcarbonyl)pyrazolo[1,5-a]pyrimidin-7-yl]phenylcarbamate], the IC50 (Homo sapiens, 80S14, 120 h, read-out: IC50 for 80SI4 (uM)) was under 1 µM.
For COc1ccc(CC(=O)Nc2cccc(-c3ccnc4c(C(=O)c5cccs5)cnn34)c2)cc1 [Example 106, 2-(4-methoxyphenyl)-N-{3-[3-(thien-2-ylcarbonyl)pyrazolo[1,5-a]pyrimidin-7-yl]phenyl}acetamide], the IC50 [1] was under 1 µM.
O=C(c1cccs1)c1cnn2c(-c3cccc(NS(=O)(=O)/C=C/c4ccccc4)c3)ccnc12 [Example 37, (E)-2-phenyl-N-{3-[3-(thien-2-ylcarbonyl)pyrazolo[1,5-a]pyrimidin-7-yl]phenyl}ethenesulfonamide] showed an IC50 [1] of 10 to 50 µM.
Compound O=C(c1ccco1)c1cnn2c(-c3cccc(NC(=O)C4CCCC4)c3)ccnc12 [Example 302, N-{3-[3-(2-Furoyl)pyrazolo[1,5-a]pyrimidin-7-yl]phenyl}cyclopentanecarboxamide] has an IC50 [2] of under 1 µM.
Cc1ccc(S(=O)(=O)Nc2cccc(-c3ccnc4c(C(=O)c5cccs5)cnn34)c2)cc1 [Example 32, 4-methyl-N-{3-[3-(thien-2-ylcarbonyl)pyrazolo[1,5-a]pyrimidin-7-yl]phenyl}benzenesulfonamide] was tested, and the IC50 [1] was under 1 µM.
With O=C(c1cccs1)c1cnn2c(-c3cccc(NC(=O)C4CO4)c3)ccnc12 (stereo not drawn) [Example 277, N-{3-[3-(2-Thienylcarbonyl)pyrazolo[1,5-a]pyrimidin-7-yl]phenyl}-2-oxiranecarboxamide] the IC50 [2] was under 1 µM.
For CC(C)NC(=O)c1cccc(-c2ccnc3c(C(=O)c4cccs4)cnn23)c1 [Example 322, N-Isopropyl-3-[3-(2-thienylcarbonyl)pyrazolo[1,5-a]pyrimidin-7-yl]benzamide], the IC50 [2] was under 1 µM.
O=C(CC1Cc2ccccc2C1)Nc1cccc(-c2ccnc3c(C(=O)c4cccs4)cnn23)c1 [Example 67, 2-(2,3-dihydro-1H-inden-2-yl)-N-{3-[3-(thien-2-ylcarbonyl)pyrazolo[1,5-a]pyrimidin-7-yl]phenyl}acetamide] showed an IC50 [1] of under 1 µM.
Cc1cc(C)cc(-c2cnn3c(-c4cccc(-c5nnn(CCN6CCCCC6)n5)c4)ccnc23)c1 [Example 499, 3-(3,5-Dimethylphenyl)-7-{3-[2-(2-piperidin-1-ylethyl)-2H-tetrazol-5-yl]phenyl}pyrazolo[1,5-a]pyrimidine] gave an IC50 [2] of 1 to 10 µM.
Work on O=C(CNC(=O)OCCCl)Nc1cccc(-c2ccnc3c(C(=O)c4cccs4)cnn23)c1 [Example 120, 2-chloroethyl-2-oxo-2-({3-[3-(thien-2-ylcarbonyl)pyrazolo[1,5-a]pyrimidin-7-yl]phenyl}amino)ethylcarbamate] yielded an IC50 [1] of 1 to 10 µM.
CCCOC(=O)NCC(=O)Nc1cccc(-c2ccnc3c(C(=O)c4cccs4)cnn23)c1 [Example 114, propyl 2-oxo-2-({3-[3-(thien-2-ylcarbonyl)pyrazolo[1,5-a]pyrimidin-7-yl]phenyl}amino)ethylcarbamate] gave an IC50 [1] of 10 to 50 µM.
CCC(CC)OC(=O)Nc1cccc(-c2ccnc3c(C(=O)c4cccs4)cnn23)c1 [Example 186, 1-ethylpropyl 3-[3-(thien-2-ylcarbonyl)pyrazolo[1,5-a]pyrimidin-7-yl]phenylcarbamate] gave an IC50 [1] of under 1 µM.
CC(C)OC(=O)Nc1cccc(-c2ccnc3c(C(=O)c4ccoc4)cnn23)c1 [Example 305, Isopropyl 3-[3-(3-furoyl)pyrazolo[1,5-a]pyrimidin-7-yl]phenylcarbamate] was tested, and the IC50 [3] was 1 to 10 µM.
Work on N[C@@H](CC1CCCCC1)C(=O)Nc1cccc(-c2ccnc3c(C(=O)c4cccs4)cnn23)c1 [Example 82, 3-cyclohexyl-N-1-[3-[3-(thien-2-ylcarbonyl)pyrazolo[1,5-a]pyrimidin-7-yl]phenyl}-L-alaninamide] yielded an IC50 [4] of 10 to 50 µM.
In the case of O=C(Nc1ccccc1)Nc1cccc(-c2ccnc3c(C(=O)c4cccs4)cnn23)c1 [Example 1, N-phenyl-N′-{3-[3-(thien-2-ylcarbonyl)pyrazolo[1,5-a]pyrimidin-7-yl]phenyl}urea], the IC50 [1] is reported as under 1 µM.
CC(C)(C)C(=O)NCC(=O)Nc1cccc(-c2ccnc3c(C(=O)c4cccs4)cnn23)c1 [Example 132] was tested, and the IC50 [4] was 1 to 10 µM.
Compound CCCCNC(=N)OC(=N)N(CCCC)c1cccc(-c2ccnc3c(C(=O)c4cccs4)cnn23)c1 [Example 292, N,N′-Dibutyl-N-{3-[3-(2-thienylcarbonyl)pyrazolo[1,5-a]pyrimidin-7-yl]phenyl}dicarbonimidic diamide] has an IC50 (Homo sapiens, 120 h, 80S14 (p21-deficient) cells, 5 days, SRB, numeric value, read-out: IC50 for 80S14) of 4.5 µM.
Compound CCN(C(=O)C1CC1)c1cccc(-c2ccnc3ccnn23)c1 [Example 254, N-Ethyl-N-(3-pyrazolo[1,5-a]pyrimidin-7-ylphenyl)-cyclopropanecarboxamide] has an IC50 [2] of 10 to 50 µM.
For O=C(Cc1cccs1)Nc1cccc(-c2ccnc3c(C(=O)c4cccs4)cnn23)c1 [Example 66], the IC50 [4] was under 1 µM.
In the case of O=C(c1cccs1)c1cnn2c(-c3cccc(NS(=O)(=O)c4ccc(Br)cc4)c3)ccnc12 [Example 35, 4-bromo-N-{3-[3-(thien-2-ylcarbonyl)pyrazolo[1,5-a]pyrimidin-7-yl]phenyl}benzenesulfonamide], the IC50 [1] is reported as 1 to 10 µM.
Compound CC(C)[C@H](N)C(=O)Nc1cccc(-c2ccnc3c(C(=O)c4cccs4)cnn23)c1 [Example 83, N-1-{3-[3-(thien-2-ylcarbonyl)pyrazolo[1,5-a]pyrimidin-7-yl]phenyl}-L-valinamide] has an IC50 [4] of 1 to 10 µM.
N#CCC(=O)Nc1cccc(-c2ccnc3c(C(=O)c4cccs4)cnn23)c1 [Example 60, 2-cyano-N-{3-[3-(thien-2-ylcarbonyl)pyrazolo[1,5-a]pyrimidin-7-yl]phenyl]acetamide] gave an IC50 [1] of under 1 µM.
